Holding throughout (format): cell-based, human
In series [1] the test system is cardiomyocytes derived from healthy, and diseased hiPSC cells. Briefly: Drug testing on ANP, action potential profile. The conditions noted are these: addition of Verapamil.
The test system of series [2] is hESC-derived cardiomyocytes (hESC-CMs). Briefly: High throughput cardiotoxicity profiling, live/dead imaging (Calcein-AM / EtBr). As to conditions: doxorubicin, 24 hrs. The procedure: FIGS. 16A-16B show high throughput cardiotoxicity profiling. To test the capacity of the ANP and system to identify cardiotoxic drugs, hESC-derived cardiomyocytes (hESC-CMs) were treated with doxorubicin for 24 hrs and then imaged using the high-throughput Applied Precision DeltaVision system.

For series [3], the system named is MHY7 mutated iPSC-derived CMs. The series can be described thus: Sarcomere organization on nanotextured platforms, disease model. The conditions noted are these: addition of isoproterenol. From the text:
(§1) FIG. 34A-34D show nanotextured platforms facilitate maturation of hiPSC-derived cardiomyocytes allowing them to be used as effective disease models for drug testing against cardiomyopathies, and as in vitro cardiac disease models. […] Since nanotextures allow physiological organization of sarcomeres, it serves as a disease model to test the effect of a drug on a diseased cardiomyocyte.

Series [4] deals with control IMR90 cells (IMR90 hiPSC-derived cardiomyocytes). Briefly: Sarcomere organization on nanotextured platforms, control cells. As to conditions: addition of isoproterenol.
Description: as §1

The test system of a further series is hES-CM monolayers. Briefly: Action potential profile of monolayers on the ANP polymer substrate.
For series [5], the system named is paced hiPSC-derived cardiomyocytes monolayer. Briefly: Optical mapping of conduction velocity vectors and spatial activation map. As to conditions: 40 μM vs 0 μM.
Series [6] deals with hESC-derived cardiomyocyte cultures. The series can be described thus: Action potential time course traces with 1 Hz pacing on the nanotextured substrate. The conditions noted are these: 0, 20 and 40 μM, 4 seconds. The procedure: Representative action potential time course traces for 4 seconds in the presence of 1 Hz pacing in the presence of carboxelone, a GAP junction inhibitor at 0 μM (FIG. 19A), 20 μM (FIG. 19B), and 40 μM (FIG. 19C) are shown.

Consider `COc1ccc(CCN(C)CCCC(C#N)(c2ccc(OC)c(OC)c2)C(C)C)cc1OC` (stereo not drawn) [Verapamil], for which the AP profile entry in series [1] is “causes distortions in AP profile”.

For the compound `COc1cccc2c1C(=O)c1c(O)c3c(c(O)c1C2=O)C[C@@](O)(C(=O)CO)C[C@@H]3O[C@H]1C[C@H](N)[C@H](O)[C@H](C)O1` [doxorubicin], the “percentage of dead hESC-CMs” value in series [2] is “statistically significant increase”.

With `CC(C)NCC(O)c1ccc(O)c(O)c1` (stereo not drawn) [isoproterenol], the sarcomere organization entry in series [3] is reported as “results in loss of sarcomere organization”. The sarcomeric organization entry in series [4] is on record as “does not result in loss of sarcmeric organization”.

In the case of `COc1cc(N)c(Cl)cc1C(=O)NC1CCN(CCCOc2ccc(F)cc2)CC1OC` (stereo not drawn) [cisapride], in the series on hES-CM monolayers (K+ channel inhibitor on hES-CM monolayers), the AP profile result is given as “distortions in AP profile”. In addition, in the series on hES-CM monolayers (addition of cisapride for 2 minutes), the “prolongation of action potential” value is recorded as “prolongation of action potential in a significant manner”.

For `CC1(C)[C@@H](OC(=O)CCC(=O)O)CC[C@]2(C)[C@H]3C(=O)C=C4[C@@H]5C[C@@](C)(C(=O)O)CC[C@]5(C)CC[C@@]4(C)[C@]3(C)CC[C@@H]12` [carboxelone], in series [5], the conduction velocity vectors result is reported as “decrease in conduction across the tissue” and the “spatial activation map of electrical activity” value was “decrease in electrical activity of the monolayer”. Further, in series [6], the “effect on action potential time course traces” value is given as “dose dependent”.

The values are drawn from patent US9994812B2, “Systems and method for engineering muscle tissue” (UNIVERSITY OF WASHINGTON THROUGH ITS CENTER FOR …, priority 2012, dated 2018).
